System: relapsed or refractory PTCL
Experiment: Efficacy study of compound shown in Formula (I) in peripheral T-cell lymphoma patients
Assay type: in vivo, human
Protocol: ORR: Defined as the proportion of subjects with best efficacy of CR or PR from the start of the first dose to the occurrence of PD or the start of subsequent new anti-tumor treatment, whichever occurs first. • 1.1 Drugs: Compound (WO2017084494A) shown in Formula (1), strength: 50 mg/tablet, 200 mg/tablet. • 1.2 Methods of administration: 350 mg, twice a day, 28 days as a cycle. • 1.3 Inclusion criteria: Relapsed or refractory T lymphocytic lymphoma. A total of 24 patients with relapsed or refractory PTCL were enrolled in the 350 mg group, of whom 16 received chidamide, and all patients were analyzed for efficacy data based on indistinguishable prior treatment and prior chidamide treatment.

CCc1c(N(CC)C2CCOCC2)cc2oc(CN3CCCCC3)cc2c1C(=O)NCc1c(C)cc(C)[nH]c1=O [Formula (I)] gave an ORR (350 mg group having used chidamide, ES, AITL (n = 8)) of 62.5%, an ORR (350 mg group having used chidamide, ES, ALL (n = 14)) of 64.3% and an ORR (350 mg group having used chidamide, ES, PTCL-NOS (n = 6)) of 66.7%. It also gave an ORR (350 mg group having used chidamide, FAS, AITL (n = 10)) of 50.0%, an ORR (350 mg group having used chidamide, FAS, ALL (n = 16)) of 56.3% and an ORR (350 mg group having used chidamide, FAS, PTCL-NOS (n = 6)) of 66.7%. For the same compound, the ORR (350 mg twice a day, ES, AITL (n = 11)) was 72.7%, the ORR (350 mg twice a day, ES, ALL (n = 18)) was 66.7% and the ORR (350 mg twice a day, ES, PTCL-NOS (n = 7)) was 57.1%. For the same compound, the ORR (350 mg twice a day, FAS, AITL (n = 15)) was 53.3%, the ORR (350 mg twice a day, FAS, ALL (n = 24)) was 50% and the ORR (350 mg twice a day, FAS, PTCL-NOS (n = 9)) was 44.4%.

— US20240325371A1, “USE OF EZH2 INHIBITOR IN PREPARATION OF DRUG FOR TREATING T-CELL LYMPHOMA” (JIANGSU HENGRUI MEDICINE CO., LTD., priority 2021, published 2024)
